Source: publication PMC6332359, “Insecticidal and Nematicidal Activities of Novel Mimosine Derivatives” (Molecules, 2015)
“And” between values parts separate entries of the source, which are not always exact repeats. Identical values can stand only once. Like-named read-outs stand apart in the source and are kept apart here.

Experiments:
termites [1] = assay: Topical assay against termites (acute toxicity); assay type: in vivo; conditions: for LD50 against termites by topical application: worker termites, mortality after 48 h, mean ± SE of four replications; for Insecticidal activity relative to mimosine: higher than mimosine, from Table 1 LD50
Procedure: An acute toxicity bioassay was performed by topical application to worker termites. A series of seven different doses (0.25, 0.5, 1.5, 2.5, 7.5, 12.5, and 25 μg/termite) was prepared in ethanol solution for each tested sample. Aliquots (0.5 μL) of diluted samples were applied topically to the abdomens of worker termites. Controls were treated with 0.5 μL ethanol only. Termites were transferred into petri dishes (4.2-cm diameter) lined with filter paper and kept in an incubator at 23–25 °C. A few drops of distilled water were supplied daily to the bottom edge of each dish to maintain moisture during the experiment. Four replicates of 20 termites each were used per treatment. Fenitrothion and rotenone were used as positive controls. Mortality of insects was evaluated after 48 h treatment. […] LD50 values were calculated by probit analysis using Graphpad Prism 6.01 (GraphPad, La Jolla, CA, USA).

termites [2] = assay: No-choice contact assay against termites; assay type: in vivo; conditions: no-choice contact method, seven days treatment
Procedure: The no-choice bioassay method as described by Tawata et al. was used to evaluate insecticidal activity. […] Filter paper treated with ethanol and acetone was used as the control. After removing the solvent from treated filter paper by air drying at ambient temperature for 24 h, 20 termites were placed onto each paper. The dishes were covered and placed in incubator at ±23 °C. A few drops of distilled water were supplied daily to the bottom edge of each petri dish to maintain moisture during the experiment. The experiment was performed using four replicates of each treatment and was repeated two times. Mortality was evaluated after seven days treatment. […] Insect mortality rate was calculated as a percentage in comparison with the control group. Rotenone and fenitrothion were used as positive controls.

[3] = target: acetylcholinesterase (AChE) from termite whole bodies; assay: Acetylcholinesterase (AChE) inhibition, modified Ellman's method; assay type: biochemical, termites; conditions: crude enzyme from termite whole bodies; for IC50: pH 8.0, 25 °C, read-out: IC50 against AChE
Procedure: Whole bodies of termites (20 mg) were homogenized in 1 mL of 0.1 M phosphate buffer (pH 8.0), and the homogenate was centrifuged at 12,000 rpm for 20 min. The supernatant was used as the enzyme source. All procedural steps for preparing the crude enzyme were performed at 4 °C [26]. The AChE activity was measured using the modified Ellman’s method. Twenty-five microliters of sample was transferred into each well of a 96-well microplate containing 125 μL 0.1 M phosphate buffer (pH 8.0), and 30 μL of the enzyme solution was added to each well. The mixture was incubated for 10 min at 25 °C, after which 50 μL of 5,5′-dithiobis-(2-nitrobenzoic acid) (final concentration 0.4 mM) and 25 μL of acetylthiocholine iodide (final concentration 1 mM) were added. The control was treated by adding 25 μL water. Enzyme activity was measured for 20 min at 412 nm. The AChE inhibition assay was performed using four replicates of each treatment and was repeated two times. The inhibition rate of AChE activity was calculated as a percentage as follows: Inhibition (%) = (Ao − AE)/Ao × 100(1) where Ao is the absorbance of the control, and AE is the absorbance of the tested sample.

Caenorhabditis elegans = assay: Nematicidal activity assay, 96-well microplate method; assay type: in vivo
Procedure: The nematicidal activity assay was conducted according to previously described procedures with minor modifications. The nematode Caenorhabditis elegans was cultivated on nematode growth medium (NGM) [3 g NaCl, 15 g agar, 2.5 g polypeptone, 136.1 g KH2OP4, 17.9 g KOH, 1 mL 1 M MgSO4, 1 mL 1 M CaCl2, 1 mL cholesterol (5 mg/mL), and 500 μL ampicillin (100 μg/mL)] plate covered with Escherichia coli strain OP50. The ampicillin-resistant OP50 was used as a feed source to prevent cross-contamination of the nematode culture. The NGM plates contained high densities of worms after 4 days incubation at 20 °C. For preparation of synchronous worm culture, worms were rinsed from the agar plate with S-basal buffer (5.85 g NaCl, 1 g K2HPO4, 6 g KH2PO4, and 1 mL cholesterol [5 mg/mL ethanol]/L), washed twice with S-basal buffer, and added to household bleach/10 N NaOH solution. The supernatant was shaken for 10–15 min, washed three times by centrifugation for 1 min at 3000 rpm, and then resuspended in S-basal buffer. One hundred microliters of worm/OP50 (1.2 × 10^9 bacteria/mL) solution was transferred into each well of a 96-well plate, and 20 μL sample stock solution was added to give final concentrations 25, 50, 100, 250, and 500 μM. The plate was shaken thoroughly for 2–3 min and incubated at 20 °C. Water was used as a negative control. The experiment was performed using four replicates of each treatment and was repeated two times. Dead and active nematodes were recorded after 48 h treatment. Nematode mortality rate was calculated as a percentage in comparison with the control group.

[4] = read-out: Nematicidal activity IC50, C. elegans, 48 h treatment, 20 °C
[5] = Caenorhabditis elegans, C. elegans, 48 h treatment, 20 °C, read-out: Nematicidal activity IC50

Row | Compound | LD50 against termites by topical application (termites [1]) | Mortality (%) (termites [2]; 50 μg/mL) | Mortality (%) (termites [2]; 100 μg/mL) | Mortality (%) (termites [2]; 250 μg/mL) | Mortality (%) (termites [2]; 5 μg/mL) | Mortality (%) (termites [2]; 10 μg/mL) | Mortality (%) (termites [2]; 15 μg/mL) | IC50 [3] [µM] | IC50 (Caenorhabditis elegans; [4]) [µM] | IC50 (Caenorhabditis elegans; Caenorhabditis elegans, 48 h, read-out: Nematicidal activity IC50, C. elegans, 48 h treatment, 20 °C) [µM] | Insecticidal activity relative to mimosine (termites [1]) [times] | IC50 (Caenorhabditis elegans; [5]) [µM] | AChE inhibitory activity (in words) [3]
1 | C=C(C)[C@H]1Cc2c(ccc3c2O[C@@H]2COc4cc(OC)c(OC)cc4[C@@H]2C3=O)O1 [Rotenone, rotenone, reference compound] | 0.8 ± 0.2 ef μg/insect | 48.8 ± 0.9 bc % | 68.1 ± 1.3 bc % | 80.0 ± 0.9 b % | – | – | – | – | – | – | – | – | –
2 | COP(=S)(OC)Oc1ccc([N+](=O)[O-])c(C)c1 [Fenitrothion, reference compound] | 0.025 ± 0.0 g μg/insect | – | – | – | 26.9 ± 1.3 | 69.4 ± 0.6 | 83.8 ± 1.9 | 182 | – | – | – | – | –
3 | COP1(=S)N[C@@H](Cn2ccc(=O)c(O)c2)CO1 (stereo partly drawn) [Compound 2a, 3-Hydroxy-1-(((4S)-2-methoxy-2-sulfido-1,3,2-oxazaphospholidin-4-yl)methyl)pyridin-4(1H)-one] | 1.2 ± 0.2 de μg/insect | 48.8 ± 2.5 bc % | 70.6 ± 0.6 b % | 82.5 ± 1.3 ab % | – | – | – | – | 252 | – | – | – | –
4 | CCCOP1(=S)N[C@@H](Cn2ccc(=O)c(O)c2)CO1 (stereo partly drawn) [Compound 1c, 3-Hydroxy-1-(((4S)-2-propoxy-2-sulfido-1,3,2-oxazaphospholidin-4-yl)methyl)pyridin-4(1H)-one] | 0.8 ± 0.1 ef μg/insect | 45.6 ± 0.4 bc % | 59.4 ± 1.3 cd % | 77.5 ± 0.9 b % | – | – | – | – | – | 116 | – | – | –
5 | [2H]C([2H])(O)[C@@H](N)Cn1ccc(=O)c(O)c1 [D-mimosinol, deuterated mimosinol] | 1.8 ± 0.3 d μg/insect | 33.1 ± 1.9 de % | 53.8 ± 3.8 de % | 60.6 ± 0.6 cd % | – | – | – | – | – | – | > 30 | 390 | –
6 | O=c1cc(CO)occ1O [kojic acid] | – | – | – | – | – | – | – | 5480 | – | – | – | 328 | not active
7 | CCCOP1(=S)N[C@@H](Cn2ccc(=O)c(O)c2)CO1 (stereo partly drawn) [Compound 2c, 3-Hydroxy-1-(((4S)-2-propoxy-2-sulfido-1,3,2-oxazaphospholidin-4-yl)methyl)pyridin-4(1H)-one] | 3.1 ± 0.5 b μg/insect | 29.4 ± 1.9 e % | 44.4 ± 1.9 e % | 52.5 ± 3.8 d % | – | – | – | – | 218 | – | – | – | –
8 | CCOP1(=S)N[C@@H](Cn2ccc(=O)c(O)c2)CO1 (stereo partly drawn) [Compound 1b, 1-(((4S)-2-Ethoxy-2-sulfido-1,3,2-oxazaphospholidin-4-yl)methyl)-3-hydroxypyridin-4(1H)-one] | 0.7 μg/insect and 0.7 ± 0.1 ef μg/insect | 52%–62% and 52.5 ± 3.5 ab % | 71%–88% and 71.9 ± 1.3 b % | 84.4 ± 2.2 ab % | – | – | – | 104 | 50.2 | – | – | – | –
9 | N[C@H](CO)Cn1ccc(=O)c(O)c1 [Mimosinol, mimosinol] | 1.2 ± 0.2 de μg/insect | 38.1 ± 1.3 cde % | 52.5 ± 2.7 de % | 68.5 ± 0.6 c % | – | – | – | – | – | – | > 30 | 376 | –
10 | CCOP1(=S)N[C@@H](Cn2ccc(=O)c(O)c2)CO1 (stereo partly drawn) [Compound 2b, 1-(((4S)-2-ethoxy-2-sulfido-1,3,2-oxazaphospholidin-4-yl)methyl)-3-hydroxypyridin-4(1H)-one] | 2.1 ± 0.4 c μg/insect | 42.5 ± 2.5 bcd % | 52.5 ± 2.5 de % | 63.8 ± 0.0 c % | – | – | – | – | 187 | – | – | – | –
11 | NC(Cn1ccc(=O)c(O)c1)C(=O)O (stereo not drawn) [Mimosine, β-[N-(3-hydroxy-4-oxypyridyl)]-α-aminopropionic acid] | 54.1 ± 5.9 a μg/insect | 2.5 ± 1.1 f % | 7.5 ± 1.0 f % | 9.1 ± 2.0 e % | – | – | – | 1530 | – | – | – | 16.8 | not active
12 | COP1(=S)N[C@@H](Cn2ccc(=O)c(O)c2)CO1 (stereo partly drawn) [Compound 1a, 3-Hydroxy-1-(((4S)-2-methoxy-2-sulfido-1,3,2-oxazaphospholidin-4-yl)methyl)pyridin-4(1H)-one] | 0.5 μg/insect and 0.5 ± 0.1 fg μg/insect | 52%–62% and 62.5 ± 1.8 a % | 71%–88% and 88.8 ± 0.9 a % | 90.6 ± 1.3 a % | – | – | – | 95.9 | 31.8 | – | – | – | –
